Measurements from US20100151520A1, “Translation Enhancer Elements Of Genes Encoding Human Tau Protein and Human Alpha-Synuclein Protein” (priority 2004, published 2010).
“Also recorded” adds a separate entry of the source. Blank lines part the entries; values can stand above or below the molecule they belong to.

Tests used:
α-synuclein protein = test: Western blot of α-synuclein protein levels in treated SY5Y neuroblastoma cells; format: cell-based, human
wild-type pGL3 vector = test: Luciferase reporter assay, wild-type pGL3 control vector; format: cell-based
Description: (§1) To determine whether α-synuclein 5′UTR sequences were iron responsive SH-SY5Y transfection experiments were performed using an ASN 5′UTR pGL3 construct compared to pGL3, and control vector in which the luciferase expression was translated in the absence of the α-synuclein 5′UTR.
A 46 base sequence (SEQ ID NO:21) of the α-synuclein 5′ UTR was synthesized with a HindIII site at the 5′ end and a Nco I site at the 3′ end (Integrated DNA Technologies, Coralville, Iowa) and then ligated into a pGL-3 vector (Promega, Madison Wis.) immediately in front of the luciferase gene, under the control of a SV40 promotor. Wild-type pGL3 or pGL3 containing the α-synuclein 5′ UTR insert upstream of the luciferase promotor (α-synuclein 5′UTR-pGL3) were used. Expression of green fluorescent protein (GFP) within the pGL3 vector, controlled by a SV40 late poly(A) signal was used to control for transfection efficiency. 8×10^5 neuroblastoma HYSY cells were seeded for 24 hours in 60-mm^2 dishes with 5 ml Dulbeccco's modified medium containing 10% fetal bovine serum. […] GFP expression was quantified at 489/509 nm with the same Wallac 1420 counter to control for transfection efficiency.

α-synuclein 5′ UTR = test: Luciferase reporter assay, α-synuclein 5′UTR-pGL3 transfected neuroblastoma cells; format: cell-based, human; settings: 48 hours, luciferase controlled by α-synuclein 5′ UTR
Description: as §1
A 46 base sequence (SEQ ID NO:21) of the α-synuclein 5′ UTR was synthesized with a HindIII site at the 5′ end and a Nco I site at the 3′ end (Integrated DNA Technologies, Coralville, Iowa) and then ligated into a pGL-3 vector (Promega, Madison Wis.) immediately in front of the luciferase gene, under the control of a SV40 promotor. Wild-type pGL3 or pGL3 containing the α-synuclein 5′ UTR insert upstream of the luciferase promotor (α-synuclein 5′UTR-pGL3) were used. Expression of green fluorescent protein (GFP) within the pGL3 vector, controlled by a SV40 late poly(A) signal was used to control for transfection efficiency. 8×10^5 neuroblastoma HYSY cells were seeded for 24 hours in 60-mm^2 dishes with 5 ml Dulbeccco's modified medium containing 10% fetal bovine serum. For transfection, cells were first rinsed 3× in Phosphate Buffered Saline (PBS) and then treated with 5 μg of purified DNA combined with PolyFect transfection reagent and growth medium, according to the manufacturer's specifications (Qiagen). After a 24 hours incubation at 37° and 5% CO2 to maximize transfection efficiency, cells were washed in PBS 3×, trypsonized and plated to 95% confluence in 96-well plates. Cells were allowed to seed in the 96-well plates for 12 hours in Dulbecco's modified medium containing 10% fetal bovine serum and ampicillin, to select for cells containing the plasmid, which contained an ampicillin resistance gene. […] Treatment medium was prepared fresh the day of experiment and incubated for 1 hour at 37° prior to the experiment to maximize solubility. […] Cells were lysed with 1× Bright-glo luciferase assay buffer and the lysates combined with bright-glo luciferase assay substrate warmed to 37°, according to the specifications of the manufacturer (Promega, Madison, Wis.). All experiments were performed in triplicate. Automated luciferase assays were performed with a Wallac 1420 multi-label counter. GFP expression was quantified at 489/509 nm with the same Wallac 1420 counter to control for transfection efficiency.

α-synuclein mRNA = test: Quantitative real-time PCR of α-synuclein mRNA levels in SY5Y cells; format: cell-based, human; settings: 6 or 16 hours, relative to beta actin (FIG. 4)
Description: (§2) Quantitative real-time PCR (qRTPCR) was used to measure steady-state mRNA levels for α-synuclein mRNA relative to […] in response to iron. Neuroblastoma (SY5Y) cells were treated with iron or desferrioxamine (DFO) for 6 hours or 16 hours and control cells were left untreated (U) for the same indicated times (i.e., 6 hours untreated=U6, and 16 hours untreated=U16). TfR mRNA was the experimental positive control mRNA.
(§3) The qRTPCR was conducted as follows. Total RNA was isolated from iron and desferrioxamine treated neuroblastoma cell line, SH-SY5Y according to manufacturers specification (RNAeasy Mini Kit, Qiagen, Valencia, Calif.). The optional on-column DNase digestion with the RNase-Free DNase set (Qiagen) was incorporated into all RNA isolations.
3 μg total RNA was primed with oligo-dT and the Superscript II enzyme according to manufacturer's instructions (Invitrogen, Carlsbad, Calif.) to synthesize […] cDNA. For qRTPCR, primer specificity was initially verified by searching for homology to genomic databases using NCBI BLAST. After completion of qRTPCR, the appropriately sized amplicon were confirmed by agarose gel electrophoresis. […] Fluorescence was measured at the end of each annealing cycle using the ABI Prism 7000 (Applied Biosystems, Foster City, Calif.). Average threshold cycle (Ct) values were measured in the exponential phase of the PCR reaction for each duplicate sample. […] Relative expression of the treated samples was determined by first normalizing against that of the untreated samples (ΔCT^sample−ΔCT^normal=ΔΔCT) and then calculating the fold change (fold change=2^−ΔΔCt).
(§4) Primers used for quantitative real-time PCR were as follows: […]
The details of the annealing temperature are as follows. […] The dsDNA-specific dye SYBR Green I incorporated into the PCR reaction buffer QuantiTech™ SYBR PCR (Qiagen) to allow for quantitative detection of the PCR product in a 25-μl reaction volume. […]

[1] = test system: Transferrin receptor mRNA (TfR mRNA); test: Quantitative real-time PCR of transferrin receptor mRNA (positive control) in SY5Y cells; format: cell-based
Description: as §2, §3
3 μg total RNA was primed with oligo-dT and the Superscript II enzyme according to manufacturer's instructions (Invitrogen, Carlsbad, Calif.) to synthesize […] cDNA. For qRTPCR, primer specificity was initially verified by searching for homology to genomic databases using NCBI BLAST. After completion of qRTPCR, the appropriately sized amplicon were confirmed by agarose gel electrophoresis. All reactions were performed in duplicate in a 50 μl volume consisting of 3 μl cDNA, […] each of the forward and reverse primer of β-Actin and […] each of the forward and reverse primer of all other primer pairs, and the fluorescent SYBR Green I dye. Fluorescence was measured at the end of each annealing cycle using the ABI Prism 7000 (Applied Biosystems, Foster City, Calif.). Average threshold cycle (Ct) values were measured in the exponential phase of the PCR reaction for each duplicate sample. Average Ct values were normalized against that β-Actin amplified in parallel from the same sample. Relative expression of the treated samples was determined by first normalizing against that of the untreated samples (ΔCT^sample−ΔCT^normal=ΔΔCT) and then calculating the fold change (fold change=2^−ΔΔCt).
as §4
The details of the annealing temperature are as follows. […] For real-time PCR, the cDNA was amplified using an ABI PRISM 7000 Sequence Detection System (PE Applied Biosystems, Foster City, Calif.). The dsDNA-specific dye SYBR Green I incorporated into the PCR reaction buffer QuantiTech™ SYBR PCR (Qiagen) to allow for quantitative detection of the PCR product in a 25-μl reaction volume. The temperature profile of the reaction was 95° C. for 10 min, 40 cycles of denaturation at 95° C. for 15 sec, annealing at 60° C. for 30 sec, and extension at 72° C. for 30 sec. An internal housekeeping gene control, β-actin, was used to normalize differences in RNA isolation, RNA degradation, and the efficiencies of the RT. The size of the PCR product was first verified on a 1.5% agarose gel, followed by melting curve analysis.
(§5) Neuroblastoma cells (SY5Y) were treated with each agent for 6 hours or 16 hours and control cells were left untreated (U) for the same indicated times (i.e., 6 hours untreated=U6, and 16 hours untreated=U16).

Tau mRNA = test: Quantitative real-time PCR of Tau mRNA levels in SY5Y cells; format: cell-based, human; settings: for Tau mRNA levels: 6 or 16 hours (100 μM DFO where stated), FIG. 5
Description: Quantitative real-time PCR (QRTPCR) was performed on RNA extracted from iron/zinc and desferrioxamine treated mRNA. Methods for QRTPCR were as described for priming an α-synuclein amplicon (see Example 1) except that oligonucleotides were (NM016835Rev) 5′[…]3′ (SEQ ID NO:15) and (NM 016835For) 5′[…]3′ (SEQ ID NO:16).
as §5

[2] = biological target: T1, Iron-Regulatory Protein-1 (IRP-1) binding to α-synuclein mRNA (Homo sapiens, UniProt P21399); test: Immunoprecipitation RT-PCR of α-synuclein mRNA bound to IRP-1 in SH-SY5Y lysates; format: cell-based; settings: iron-treated SH-SY5Y cells, FIG. 6B
T1 construct: endogenous in cells; host or cells: SH-SY5Y neuroblastoma cells (lysates after treatment of the cells)
T1 sequence (P21399 1-889): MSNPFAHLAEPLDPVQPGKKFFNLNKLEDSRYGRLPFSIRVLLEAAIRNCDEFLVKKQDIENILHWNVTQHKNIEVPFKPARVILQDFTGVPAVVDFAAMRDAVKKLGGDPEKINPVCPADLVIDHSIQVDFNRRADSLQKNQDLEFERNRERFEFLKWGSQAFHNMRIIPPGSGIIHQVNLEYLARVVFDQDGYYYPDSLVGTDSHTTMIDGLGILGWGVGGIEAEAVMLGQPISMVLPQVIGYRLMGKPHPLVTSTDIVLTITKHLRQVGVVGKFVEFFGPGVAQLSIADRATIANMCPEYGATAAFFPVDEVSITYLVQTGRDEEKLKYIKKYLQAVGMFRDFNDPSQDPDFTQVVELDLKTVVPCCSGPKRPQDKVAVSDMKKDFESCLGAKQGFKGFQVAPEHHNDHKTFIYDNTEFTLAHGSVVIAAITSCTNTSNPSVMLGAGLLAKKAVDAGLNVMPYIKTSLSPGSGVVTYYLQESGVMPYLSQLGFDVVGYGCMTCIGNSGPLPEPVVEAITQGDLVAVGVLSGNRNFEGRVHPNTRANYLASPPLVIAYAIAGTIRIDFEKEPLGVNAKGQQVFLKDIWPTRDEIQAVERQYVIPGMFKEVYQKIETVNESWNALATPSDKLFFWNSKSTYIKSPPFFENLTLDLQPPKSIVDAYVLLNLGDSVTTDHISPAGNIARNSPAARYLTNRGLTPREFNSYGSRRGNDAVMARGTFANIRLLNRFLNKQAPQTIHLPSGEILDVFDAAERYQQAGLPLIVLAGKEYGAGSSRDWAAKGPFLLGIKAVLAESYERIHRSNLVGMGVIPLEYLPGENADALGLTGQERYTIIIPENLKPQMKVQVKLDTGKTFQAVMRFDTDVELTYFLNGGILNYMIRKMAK
Description: Neuroblastoma cells were treated with (i) DFO ([…]), (ii) feTf (10 μM) or remained untreated. Cells were lysed in RIPA buffer, and cytosolic extracts were immunoprecipitated with antibody to IRP-1 and IRP-2. After washing with Fe-beads the bound mRNA or superatant RNA was reverse transcribed and the mRNAs attached to the IRP-1/IRP—2 were identified by immunoprecipitation of RNA that selectively interacted with IRP-1/IRP-2 (method of Thomson, A. M., et al., Biol. Chem. 2005 Aug. 26; 280(34):30032-45. Epub 2005 Jun. 20.
We tested whether α-synuclein mRNA interacted with IRP-1 or IRP-2 by use of an RNA co-immunoprecipitation technique shown in FIG. 6. In this IPRT-PCR experiment α-synuclein mRNA was selectively co-immunoprecipitated with IRP-1 from neuroblastoma lysates (the presence of ASN mRNA was detected by PCR of cDNA reverse transcribed from mRNA immunopreciptated with IRP-1 on washed beads according to standard methods (Thomson, A. M., et al., (2005) J Biol Chem 280, 30032-30045). Ferritin mRNA was selectively immunopreciptated with both IRP-1 and IRP-2, whereas α-synuclein mRNA was selectively bound to IRP-1, not IRP-2. This technique was semi qualitative PCR, though the amount of α-synuclein mRNA attached IRP-1 was iron dependent in the experiment shown in FIG. 6B. […]

Molecule: CC(=O)N(O)CCCCCNC(=O)CCC(=O)N(O)CCCCCNC(=O)CCC(=O)N(O)CCCCCN [DFO, desferrioxamine]
steady-state levels of α-synuclein protein (α-synuclein protein; 100 μM DFO (16 h)): reduced
intracellular levels of α-synuclein protein (α-synuclein protein; short-term (6 h) and long-term (3 d) desferrioxamine treatment): dramatic reduction
effect on luciferase activity (wild-type pGL3 vector): no effect
decrease in luminescence (α-synuclein 5′ UTR; 50 mM DFO): 25%
decrease in luminescence (α-synuclein 5′ UTR; 100 mM DFO, p<0.001): 50%
α-synuclein mRNA levels (α-synuclein mRNA): unchanged; also recorded: not modulated
α-synuclein mRNA levels (α-synuclein mRNA; listed as desferrioxamine): unchanged
TfR mRNA up-regulation in response to DFO ([1]; DFO (100 μM where stated), FIG. 4, relative to beta actin): 3 fold
TfR mRNA up-regulation in response to DFO ([1]; FIG. 5 (Tau experiment), 16 hours DFO where stated): 4.5 fold
Tau mRNA levels (Tau mRNA): up-regulated; also recorded: dramatically changed
increase in induction for Tau mRNA (Tau mRNA; 16 hours treatment with DFO, relative to beta actin): 5 fold

Molecule: ferric ammonium citrate [FAC]
α-synuclein protein levels (monomer, 15 kDa) (α-synuclein protein; 100 μM FAC, 6 hour and 3 days, Western blot (FIG. 3)): increase
effect on luciferase activity (wild-type pGL3 vector): no effect
increase in luminescence (α-synuclein 5′ UTR; 10 mg/ml FAC): 5 fold
increase in luminescence (α-synuclein 5′ UTR; 100 mg/ml FAC, p<0.001): 20 fold
α-synuclein mRNA levels (α-synuclein mRNA): did not change as significantly although it was reduced; also recorded: not modulated
TfR mRNA reduction by FAC ([1]; FIG. 5 (Tau experiment)): 4 fold
Tau mRNA levels (Tau mRNA): down regulated

IRP-1 binding (to α-synuclein mRNA) [2]: reduced
Molecule: iron
fold reduction for TfR mRNA ([1]; 400 micromolar iron (16 h), FIG. 5): 0.45 fold
fold reduction for Tau mRNA (Tau mRNA; 400 micromolar iron (16 h)): 0.66 fold

Molecule: zinc
TfR mRNA responsiveness to zinc (control for iron specificity) ([1]; FIG. 5): surprisingly responsive
